Data published in PMC2752989 (PLoS ONE, 2009).

Tests used:
[1] = test system: bacteria; details: cited from earlier work
[2] = test system: C. parapsilosis ATCC 90018; format: cell-based, Candida parapsilosis; details: n = 3
[3] = test system: Candida parapsilosis ATCC 90018; format: cell-based; details: pH 7.4
[4] = test system: HaCaT keratinocytes

Substance	antibacterial activity in physiological buffers and plasma [1]	antimicrobial activity in RDA at low pH versus normal pH [2]	antimicrobial activity in RDA with versus without Zn2+ [2]	antimicrobial activity (viable count) with Zn2+ [3]	antimicrobial activity (viable count) without Zn2+ [3]	cell permeabilization (LDH release) [4]
HKHGHGHGKHKNKGKKNGKH [HKH20, kininogen-derived antimicrobial peptide]	retain antibacterial activity in physiological buffers as well as in plasma					
AHHAHAAHHAHAAHHAHAAHHAHA [AHH24, previously described H-rich control peptide]		showed enhanced activity at low pH	significantly enhanced	dose-dependent killing	showed no antimicrobial activity	
GKRKKKGKGLGKKRDPCLRKYK [GKR22]	retain antibacterial activity in physiological buffers as well as in plasma					
LL-37: classical human antimicrobial cathelicidin peptide, benchmark						less active
GHHPHGHHPHGHHPHGHHPH [GHH20, H-rich control peptide derived from histidine-rich glycoprotein]		showed enhanced activity at low pH	significantly enhanced	dose-dependent killing	showed no antimicrobial activity	
